Measurements: patent US9457033B2, “Steroid alkaloids and uses thereof as antimicrobial agents against electron transport-deficient microbes and as potentiators for antimicrobial agents against pathogenic bacteria” (priority 2011, dated 2016)
≈ marks a conversion by molar mass, not a printed value. Marks after values point to notes of the source that are not given here.

Assays:
[1] = system: colonies isolated from S. aureus ATCC 29213 cultures exposed to gentamicin; experiment: Gentamicin susceptibility of colonies isolated from 24 h-cultures exposed to gentamicin; type: cell-based, Staphylococcus aureus
Protocol: Accordingly, colonies isolated from 24 h-cultures exposed to gentamicin were often normal-growing bacteria with a decreased susceptibility to gentamicin (MIC ranging from 1 to 4 μg/ml) or SCVs (MIC for gentamicin ranging from 4 to 8 μg/ml). […] From these time-kill experiments, isolated colonies obtained from cultures exposed to gentamicin combined or not with 8 μg/ml tomatidine were analyzed for their susceptibility to gentamicin. When ATCC 29213 was exposed to gentamicin alone, the emergence of numerous normal-growing isolates showing decreased susceptibility to gentamicin (MIC ranging from 1 to 4 mg/L) was easily detected.

[2] = system: heterogeneous population of normal strain CF07-L and SCV CF07-S; experiment: Broth growth with gentamicin and tomatidine, visually evaluated (FIG. 5C); details: combination of gentamicin at 4 μg/ml and tomatidine at 0.12 μg/ml
[3] = system: SCV CF07-S; experiment: Broth growth with gentamicin or tomatidine, visually evaluated (FIG. 5B); details: gentamicin at 4 μg/ml or tomatidine at 0.12 μg/ml alone, 48 h
[4] = system: S. aureus SCV strain CF6A-S; experiment: microbe, parasite or virus in culture; type: cell-based; details: Staphylococcus aureus
[5] = system: S. aureus SCV CF41A-S; experiment: microbe, parasite or virus in culture; type: cell-based; details: Staphylococcus aureus, SCVCF41AS, 24 h, read-out: Diameter of inhibition zone
[6] = system: S. aureus ATCC 29213 in co-culture with P. aeruginosa PA14; experiment: Viability in co-culture with P. aeruginosa PA14, CAMHB; type: cell-based, Staphylococcus aureus; details: for Viability of S. aureus: SA + PA + TO at 8 μg/ml
Source text: (§1) Bacteria were sampled, serially diluted and plated on tryptic soy agar for CFU determinations. […] Mannitol-salt agar plates were used to selectively evaluate S. aureus CFU when in co-culture with P. aeruginosa.

[7] = system: SCV NewbouldΔhemB; experiment: Tomatidine susceptibility with supplemental hemin, spotted on agar (FIG. 1A); type: cell-based, Staphylococcus aureus; details: in the presence of supplemental hemin
Protocol: (§2) Normal (Newbould, CF07-L and CF1A-L), and SCV (NewbouldΔhemB (in the presence and absence of hemin), CF07-S (in the presence and absence of menadione) and CF1D-S) S. aureus strains were treated with various concentrations of tomatidine (4, 2, 1, 0.5, 0.25, 0.12 and 0.06 μg/ml) for 48 h in the Brain Hearth Infusion (BHI) medium at 35° C. and 10 μl samples were thereafter spotted on agar plated which were further incubated for 48 h before a picture was taken.

[8] = system: Clostridium perfringens ATCC 13124; experiment: microbe, parasite or virus in culture; type: cell-based; details: ATCC13124, 48 h, read-out: Diameter of inhibition zone
[9] = system: normal S. aureus strain CF07-L; experiment: Broth growth with HQNO and/or tomatidine, visually evaluated (FIG. 2); type: cell-based, Staphylococcus aureus; details: combination of HQNO (20 μg/ml) and tomatidine (8 μg/ml), 48 h
Protocol: The MICs of tomatidine, tomatine and control antibiotics (gentamicin, vancomycin, erythromycin, ciprofloxacin and oxacillin) were determined against the normal strains ATCC 29213 and CF07-L as well as against the SCV strain CF07-S in the presence of 20 μg HQNO/ml.

[10] = system: S. aureus SCV NewbouldΔhemB; experiment: microbe, parasite or virus in culture; type: cell-based; details: Staphylococcus aureus, 24 h, read-out: Diameter of inhibition zone
[11] = system: SCV CF07-S; experiment: Tomatidine susceptibility with supplemental menadione, spotted on agar (FIG. 1A); type: cell-based, Staphylococcus aureus; details: in the presence of supplemental menadione
Protocol: as §2

[12] = system: S. aureus ATCC 29213 alone; experiment: Viability in mono-culture, CAMHB; type: cell-based, Staphylococcus aureus; details: SA alone + TO at 8 μg/ml
Source text: as §1

[13] = system: Bacillus subtilis ATCC 9372; experiment: Agar diffusion method, zone of inhibition; type: cell-based; details: ATCC9372, Tomatidine (35 μg), 24 hours at 35° C., DMSO 0, read-out: Diameter of inhibition zone
Protocol: (§3) The effect of tomatidine on the growth of Bacillus subtilis strains ATCC 6633 and ATCC 9372, Bacillus cereus strain ATCC 11778 and Listeria monocytogenes strain ATCC 13932 was tested by an agar diffusion method. Bacillus spp. strains and Listeria monocytogenes were spread on the surface of Mueller-Hinton agar and Mueller-Hinton supplemented with 5% sheep blood, respectively. 35 μg of tomatidine diluted in DMSO or DMSO alone were added to wells for diffusion and plates were incubated for 24 hours at 35° C. The diameters of the zones of inhibition around the wells (for the DMSO control and for the tomatidine well) were measured and reported in mm in TABLE 12 below.

[14] = system: Bacillus cereus ATCC 11778; experiment: Agar diffusion method, zone of inhibition; type: cell-based; details: ATCC11778, Tomatidine (35 μg), 24 hours at 35° C., DMSO 0, read-out: Diameter of inhibition zone
Protocol: as §3

[15] = system: Bacillus subtilis ATCC 6633; experiment: Agar diffusion method, zone of inhibition; type: cell-based; details: ATCC6633, Tomatidine (35 μg), 24 hours at 35° C., DMSO 5, read-out: Diameter of inhibition zone
Protocol: as §3

[16] = system: Listeria monocytogenes ATCC 13932; experiment: Agar diffusion method, zone of inhibition; type: cell-based; details: ATCC13932, Tomatidine (35 μg), 24 hours at 35° C., 5% sheep blood, DMSO 0, read-out: Diameter of inhibition zone
Protocol: as §3

[17] = system: S. aureus SCV CF07S; experiment: microbe, parasite or virus in culture; type: cell-based; details: Staphylococcus aureus, SCVCF07S; Tomatidine (50 μg); menadione auxotrophy; 24 hours at 37° C. with O2; DMSO control 0; read-out: Diameter of inhibition zone
[18] = system: S. aureus SCVs (NewbouldΔhemB, CF07-S and CF1D-S); experiment: MIC, microdilution in BHI 48 h, summary for SCVs; type: cell-based, Staphylococcus aureus; details: Staphylococcus aureus, read-out: MIC against all SCVs
[19] = system: protein, DNA, RNA and cell wall peptidoglycan biosynthesis in ATCC 29213; experiment: Macromolecular biosynthesis assay, incorporation of radiolabeled precursors; type: cell-based, Staphylococcus aureus
[20] = colonies from 24 h-cultures exposed to gentamicin

In the case of gentamicin, the “MIC of normal-growing isolates showing decreased susceptibility to gentamicin” value ([1]; ATCC 29213 exposed to gentamicin alone) is reported as 1 to 4 mg/L, the “MIC for gentamicin of SCVs” value [1, 20] is reported as 4 to 8 µg/mL and the “MIC for gentamicin of normal-growing bacteria with decreased susceptibility” value [1, 20] is reported as 1 to 4 µg/mL. The “growth, visually evaluated” value [2] was “inhibits the growth” and the “growth, visually evaluated” value [3] was “does not inhibit the growth”.
NC[C@H]1O[C@H](O[C@H]2[C@H](O)[C@@H](O[C@H]3O[C@H](CO)[C@@H](O)[C@H](N)[C@H]3O)[C@H](N)C[C@@H]2N)[C@H](N)C[C@@H]1O [Tobramycin, tobramycin] was tested, and the MIC [4] was over 32 µg/mL.
With C[C@H]1CC[C@]2(NC1)O[C@H]1C[C@H]3[C@@H]4CC[C@H]5C[C@@H](O)CC[C@]5(C)[C@H]4CC[C@]3(C)[C@H]1[C@@H]2C [Tomatidine, tomatidine] the zone of inhibition at 50 µg/disc [5] was 21.5 mm, the “Viability of S. aureus” value ([6]; 0 h) was 5.4 ± 0.1 Log10 CFU/ml and the “Viability of S. aureus” value ([6]; 24 h) was 2 ± 1 ^b Log10 CFU/ml. For the same compound, the “type of antibacterial effect” value ([6]; in co-culture with P. aeruginosa, tomatidine 8 μg/ml) was “bactericidal”, the susceptibility to tomatidine [7] was “abolished” and the zone of inhibition at 50 µg/disc [8] was 11 mm. The “growth, visually evaluated” value [9] was “inhibitory activity”, the zone of inhibition at 50 µg/disc [10] was 23.5 mm and the susceptibility to tomatidine [11] was “abolished”. For the same compound, the “Viability of S. aureus” value ([12]; 0 h) was 5.1 ± 0.4 Log10 CFU/ml, the “Viability of S. aureus” value ([12]; 24 h) was 9.64 ± 0.08 Log10 CFU/ml and the zone of inhibition at 35 µg/disc [13] was 25.5 mm. The zone of inhibition at 35 µg/disc [14] was 21.5 mm, the zone of inhibition at 35 µg/disc [15] was 25.5 mm and the zone of inhibition at 35 µg/disc [16] was 12.5 mm. For the same compound, the zone of inhibition at 50 µg/disc [17] was 22.5 mm, the MIC [18] was 0.12 µg/mL (≈ 0.289 µM) and the biosynthesis of macromolecules ([19]; in the presence of 20 μg HQNO/ml, all tested concentrations above 0.12 μg/ml, FIG. 3C) was “decreased the biosynthesis of all macromolecules”. For the same compound, the synthesis of macromolecules ([19]; tomatidine up to 125 μg/ml, no HQNO, vs DMSO-treated control, FIG. 3B) was “did not alter the synthesis of any macromolecule”.
